# Laboratory results: article PMC9856672, “SGC-CAMKK2-1: A Chemical Probe for CAMKK2” (Cells, 2023)
# What was measured:
# [1] = target: T1, PAK2 (Homo sapiens, UniProt Q13177); experiment: KINOMEscan 1 μM, PAK2; assay type: binding; settings: 1000 nM; Entrez PAK2; read-out: Percent Control
# T1 construct: purchased Eurofins DiscoverX KINOMEscan
# Source text: (§1) Supplement cells-12-00287-s001.zip/File S2. KinomeScan data for the CAMKK2 probe and negative control.xlsx, sheet "SGC-CAMKK2-1" | column: Percent Control
# [2] = target: T2, EGFR(G719S) (Homo sapiens, UniProt P00533, G719S); experiment: KINOMEscan 1 μM, EGFR(G719S); assay type: binding; settings: 1000 nM; Entrez EGFR; read-out: Percent Control
# T2 construct: purchased Eurofins DiscoverX KINOMEscan
# Source text: as §1
# [3] = target: T3, WEE1 (Homo sapiens, UniProt P30291); experiment: KINOMEscan 1 μM, WEE1; assay type: binding; settings: 1000 nM; Entrez WEE1; read-out: Percent Control
# T3 construct: purchased Eurofins DiscoverX KINOMEscan
# Source text: as §1
# [4] = target: T4, CSF1R-autoinhibited (Homo sapiens, UniProt P07333); experiment: KINOMEscan 1 μM, CSF1R-autoinhibited; assay type: binding; settings: 1000 nM; Entrez CSF1R; read-out: Percent Control
# T4 construct: purchased Eurofins DiscoverX KINOMEscan
# Source text: as §1
# [5] = target: T5, MST2 (Homo sapiens, UniProt Q13188); experiment: KINOMEscan 1 μM, MST2; assay type: binding; settings: 1000 nM; Entrez STK3; read-out: Percent Control
# T5 construct: purchased Eurofins DiscoverX KINOMEscan
# Source text: as §1
# [6] = target: T6, PKMYT1 (Homo sapiens, UniProt Q99640); experiment: KINOMEscan 1 μM, PKMYT1; assay type: binding; settings: 1000 nM; Entrez PKMYT1; read-out: Percent Control
# T6 construct: purchased Eurofins DiscoverX KINOMEscan
# Source text: as §1
# [7] = target: T7, BTK (Homo sapiens, UniProt Q06187); experiment: KINOMEscan 1 μM, BTK; assay type: binding; settings: 1000 nM; Entrez BTK; read-out: Percent Control
# T7 construct: purchased Eurofins DiscoverX KINOMEscan
# Source text: as §1
# [8] = target: T8, EGFR(E746-A750del) (Homo sapiens, UniProt P00533, DEL746-750); experiment: KINOMEscan 1 μM, EGFR(E746-A750del); assay type: binding; settings: 1000 nM; Entrez EGFR; read-out: Percent Control
# T8 construct: purchased Eurofins DiscoverX KINOMEscan
# Source text: as §1
# [9] = target: T9, EIF2AK1 (Homo sapiens, UniProt Q9BQI3); experiment: KINOMEscan 1 μM, EIF2AK1; assay type: binding; settings: 1000 nM; Entrez EIF2AK1; read-out: Percent Control
# T9 construct: purchased Eurofins DiscoverX KINOMEscan
# Source text: as §1
# [10] = target: T10, EPHA1 (Homo sapiens, UniProt P21709); experiment: KINOMEscan 1 μM, EPHA1; assay type: binding; settings: 1000 nM; Entrez EPHA1; read-out: Percent Control
# T10 construct: purchased Eurofins DiscoverX KINOMEscan
# Source text: as §1
# [11] = target: T11, EPHA7 (Homo sapiens, UniProt Q15375); experiment: KINOMEscan 1 μM, EPHA7; assay type: binding; settings: 1000 nM; Entrez EPHA7; read-out: Percent Control
# T11 construct: purchased Eurofins DiscoverX KINOMEscan
# Source text: as §1
# [12] = target: T12, KIT(V559D) (Homo sapiens, UniProt P10721, V559D); experiment: KINOMEscan 1 μM, KIT(V559D); assay type: binding; settings: 1000 nM; Entrez KIT; read-out: Percent Control
# T12 construct: purchased Eurofins DiscoverX KINOMEscan
# Source text: as §1
# [13] = target: T13, RET(M918T) (Homo sapiens, UniProt P07949, M918T); experiment: DiscoverX KINOMEscan binding assay at 1 μM, RET(M918T); settings: Compound Concentration 1000 nM, read-out: Percent Control
# T13 construct: purchased Eurofins DiscoverX KINOMEscan
# Source text: as §1
# [14] = target: T14, RPS6KA5(Kin.Dom.2-C-terminal) (Homo sapiens, UniProt O75582); experiment: DiscoverX KINOMEscan binding assay at 1 μM, RPS6KA5(Kin.Dom.2-C-terminal); settings: Compound Concentration 1000 nM, read-out: Percent Control
# T14 construct: RPS6KA5(Kin.Dom.2-C-terminal); purchased Eurofins DiscoverX KINOMEscan
# Source text: as §1
# [15] = target: T15, SRPK3 (Homo sapiens, UniProt Q9UPE1); experiment: DiscoverX KINOMEscan binding assay at 1 μM, SRPK3; settings: Compound Concentration 1000 nM, read-out: Percent Control
# T15 construct: purchased Eurofins DiscoverX KINOMEscan
# Source text: as §1
# [16] = target: T16, TRKA (Homo sapiens, UniProt P04629); experiment: DiscoverX KINOMEscan binding assay at 1 μM, TRKA; settings: TRKA (NTRK1); Compound Concentration 1000 nM; read-out: Percent Control
# T16 construct: purchased Eurofins DiscoverX KINOMEscan
# Source text: as §1
# [17] = target: T17, YES (Homo sapiens, UniProt P07947); experiment: DiscoverX KINOMEscan binding assay at 1 μM, YES; settings: YES (YES1); Compound Concentration 1000 nM; read-out: Percent Control
# T17 construct: purchased Eurofins DiscoverX KINOMEscan
# Source text: as §1
# [18] = target: T18, TAK1 (Homo sapiens, UniProt O43318); experiment: KINOMEscan at 1 μM, TAK1; assay type: binding; settings: 1000 nM, read-out: Percent Control
# T18 construct: purchased Eurofins DiscoverX KINOMEscan
# Source text: (§2) Supplement cells-12-00287-s001.zip/File S2. KinomeScan data for the CAMKK2 probe and negative control.xlsx, sheet "SGC-CAMKK2-1N" | column: Percent Control
# [19] = target: T19, ABL1(E255K)-phosphorylated (Homo sapiens, UniProt P00519, E255K); experiment: KINOMEscan at 1 μM, ABL1(E255K)-phosphorylated; assay type: binding; settings: 1000 nM, read-out: Percent Control
# T19 construct: purchased Eurofins DiscoverX KINOMEscan
# Source text: as §2
# [20] = target: T20, MAP3K4 (Homo sapiens, UniProt Q9Y6R4); experiment: KINOMEscan at 1 μM, MAP3K4; assay type: binding; settings: 1000 nM, read-out: Percent Control
# T20 construct: purchased Eurofins DiscoverX KINOMEscan
# Source text: as §2
# [21] = target: T21, CDC2L1 (Homo sapiens, UniProt P21127); experiment: KINOMEscan at 1 μM, CDC2L1; assay type: binding; settings: 1000 nM, read-out: Percent Control
# T21 construct: purchased Eurofins DiscoverX KINOMEscan
# Source text: as §2
# [22] = target: T22, NDR2 (Homo sapiens, UniProt Q9Y2H1); experiment: KINOMEscan at 1 μM, NDR2; assay type: binding; settings: 1000 nM, read-out: Percent Control
# T22 construct: purchased Eurofins DiscoverX KINOMEscan
# Source text: as §2
# [23] = target: T23, RPS6KA4(Kin.Dom.2-C-terminal) (Homo sapiens, UniProt O75676); experiment: KINOMEscan at 1 μM, RPS6KA4(Kin.Dom.2-C-terminal); assay type: binding; settings: 1000 nM, read-out: Percent Control
# T23 construct: RPS6KA4(Kin.Dom.2-C-terminal); purchased Eurofins DiscoverX KINOMEscan
# Source text: as §2
# [24] = target: T24, EGFR(T790M) (Homo sapiens, UniProt P00533, T790M); experiment: KINOMEscan at 1 μM, EGFR(T790M); assay type: binding; settings: 1000 nM, read-out: Percent Control
# T24 construct: purchased Eurofins DiscoverX KINOMEscan
# Source text: as §2
# [25] = target: T25, MET (Homo sapiens, UniProt P08581); experiment: KINOMEscan at 1 μM, MET; assay type: binding; settings: 1000 nM, read-out: Percent Control
# T25 construct: purchased Eurofins DiscoverX KINOMEscan
# Source text: as §2
# [26] = target: T26, PRKD2 (Homo sapiens, UniProt Q9BZL6); experiment: KINOMEscan at 1 μM, PRKD2; assay type: binding; settings: 1000 nM, read-out: Percent Control
# T26 construct: purchased Eurofins DiscoverX KINOMEscan
# Source text: as §2
# [27] = target: T27, CDK3 (Homo sapiens, UniProt Q00526); experiment: KINOMEscan at 1 μM, CDK3; assay type: binding; settings: 1000 nM, read-out: Percent Control
# T27 construct: purchased Eurofins DiscoverX KINOMEscan
# Source text: as §2
# [28] = target: T28, CDK5 (Homo sapiens, UniProt Q00535); experiment: KINOMEscan at 1 μM, CDK5; assay type: binding; settings: 1000 nM, read-out: Percent Control
# T28 construct: purchased Eurofins DiscoverX KINOMEscan
# Source text: as §2
# [29] = target: T29, DCAMKL3 (Homo sapiens, UniProt Q9C098); experiment: KINOMEscan at 1 μM, DCAMKL3; assay type: binding; settings: 1000 nM, read-out: Percent Control
# T29 construct: purchased Eurofins DiscoverX KINOMEscan
# Source text: as §2
# [30] = target: T30, MST1 (Homo sapiens, UniProt Q13043); experiment: KINOMEscan binding assay at 1 μM, MST1; settings: Compound Concentration 1000 nM; read-out: Percent Control
# T30 construct: purchased Eurofins DiscoverX KINOMEscan
# Source text: as §2
# [31] = target: T31, PRKCD (Homo sapiens, UniProt Q05655); experiment: KINOMEscan binding assay at 1 μM, PRKCD; settings: Compound Concentration 1000 nM; read-out: Percent Control
# T31 construct: purchased Eurofins DiscoverX KINOMEscan
# Source text: as §2
# [32] = target: T32, ROS1 (Homo sapiens, UniProt P08922); experiment: KINOMEscan binding assay at 1 μM, ROS1; settings: Compound Concentration 1000 nM; read-out: Percent Control
# T32 construct: purchased Eurofins DiscoverX KINOMEscan
# Source text: as §2
# [33] = target: T33, SGK3 (Homo sapiens, UniProt Q96BR1); experiment: KINOMEscan binding assay at 1 μM, SGK3; settings: Compound Concentration 1000 nM; read-out: Percent Control
# T33 construct: purchased Eurofins DiscoverX KINOMEscan
# Source text: as §2
# T13 sequence (P07949 29-1114 M918T): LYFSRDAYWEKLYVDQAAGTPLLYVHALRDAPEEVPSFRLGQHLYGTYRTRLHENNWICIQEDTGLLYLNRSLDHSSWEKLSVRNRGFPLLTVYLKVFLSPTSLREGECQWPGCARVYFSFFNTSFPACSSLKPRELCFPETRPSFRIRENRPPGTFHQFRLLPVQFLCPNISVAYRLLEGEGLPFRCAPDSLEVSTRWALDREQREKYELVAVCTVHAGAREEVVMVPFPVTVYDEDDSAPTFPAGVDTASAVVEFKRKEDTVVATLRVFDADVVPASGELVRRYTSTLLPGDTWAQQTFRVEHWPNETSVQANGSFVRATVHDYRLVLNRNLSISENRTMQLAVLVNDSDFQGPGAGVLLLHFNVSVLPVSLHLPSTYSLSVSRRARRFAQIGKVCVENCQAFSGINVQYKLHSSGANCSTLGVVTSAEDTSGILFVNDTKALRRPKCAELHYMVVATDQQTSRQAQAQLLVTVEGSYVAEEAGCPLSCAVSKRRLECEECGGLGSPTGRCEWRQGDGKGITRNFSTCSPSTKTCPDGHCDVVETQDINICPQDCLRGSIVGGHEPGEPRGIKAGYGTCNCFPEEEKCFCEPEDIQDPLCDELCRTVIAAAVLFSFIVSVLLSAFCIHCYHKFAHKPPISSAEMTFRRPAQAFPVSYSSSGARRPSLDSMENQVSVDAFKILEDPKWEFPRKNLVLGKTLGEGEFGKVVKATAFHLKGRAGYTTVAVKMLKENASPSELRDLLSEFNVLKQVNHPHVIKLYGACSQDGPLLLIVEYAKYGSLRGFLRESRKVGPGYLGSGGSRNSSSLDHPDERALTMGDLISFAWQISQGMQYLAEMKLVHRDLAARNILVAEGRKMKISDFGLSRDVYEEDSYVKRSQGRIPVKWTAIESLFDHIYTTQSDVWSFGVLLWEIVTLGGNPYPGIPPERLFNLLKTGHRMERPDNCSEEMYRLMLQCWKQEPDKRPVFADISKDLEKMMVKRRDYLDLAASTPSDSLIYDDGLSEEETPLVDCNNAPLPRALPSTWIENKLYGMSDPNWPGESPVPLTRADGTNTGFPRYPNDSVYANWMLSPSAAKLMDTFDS
# T32 sequence (P08922 28-2347): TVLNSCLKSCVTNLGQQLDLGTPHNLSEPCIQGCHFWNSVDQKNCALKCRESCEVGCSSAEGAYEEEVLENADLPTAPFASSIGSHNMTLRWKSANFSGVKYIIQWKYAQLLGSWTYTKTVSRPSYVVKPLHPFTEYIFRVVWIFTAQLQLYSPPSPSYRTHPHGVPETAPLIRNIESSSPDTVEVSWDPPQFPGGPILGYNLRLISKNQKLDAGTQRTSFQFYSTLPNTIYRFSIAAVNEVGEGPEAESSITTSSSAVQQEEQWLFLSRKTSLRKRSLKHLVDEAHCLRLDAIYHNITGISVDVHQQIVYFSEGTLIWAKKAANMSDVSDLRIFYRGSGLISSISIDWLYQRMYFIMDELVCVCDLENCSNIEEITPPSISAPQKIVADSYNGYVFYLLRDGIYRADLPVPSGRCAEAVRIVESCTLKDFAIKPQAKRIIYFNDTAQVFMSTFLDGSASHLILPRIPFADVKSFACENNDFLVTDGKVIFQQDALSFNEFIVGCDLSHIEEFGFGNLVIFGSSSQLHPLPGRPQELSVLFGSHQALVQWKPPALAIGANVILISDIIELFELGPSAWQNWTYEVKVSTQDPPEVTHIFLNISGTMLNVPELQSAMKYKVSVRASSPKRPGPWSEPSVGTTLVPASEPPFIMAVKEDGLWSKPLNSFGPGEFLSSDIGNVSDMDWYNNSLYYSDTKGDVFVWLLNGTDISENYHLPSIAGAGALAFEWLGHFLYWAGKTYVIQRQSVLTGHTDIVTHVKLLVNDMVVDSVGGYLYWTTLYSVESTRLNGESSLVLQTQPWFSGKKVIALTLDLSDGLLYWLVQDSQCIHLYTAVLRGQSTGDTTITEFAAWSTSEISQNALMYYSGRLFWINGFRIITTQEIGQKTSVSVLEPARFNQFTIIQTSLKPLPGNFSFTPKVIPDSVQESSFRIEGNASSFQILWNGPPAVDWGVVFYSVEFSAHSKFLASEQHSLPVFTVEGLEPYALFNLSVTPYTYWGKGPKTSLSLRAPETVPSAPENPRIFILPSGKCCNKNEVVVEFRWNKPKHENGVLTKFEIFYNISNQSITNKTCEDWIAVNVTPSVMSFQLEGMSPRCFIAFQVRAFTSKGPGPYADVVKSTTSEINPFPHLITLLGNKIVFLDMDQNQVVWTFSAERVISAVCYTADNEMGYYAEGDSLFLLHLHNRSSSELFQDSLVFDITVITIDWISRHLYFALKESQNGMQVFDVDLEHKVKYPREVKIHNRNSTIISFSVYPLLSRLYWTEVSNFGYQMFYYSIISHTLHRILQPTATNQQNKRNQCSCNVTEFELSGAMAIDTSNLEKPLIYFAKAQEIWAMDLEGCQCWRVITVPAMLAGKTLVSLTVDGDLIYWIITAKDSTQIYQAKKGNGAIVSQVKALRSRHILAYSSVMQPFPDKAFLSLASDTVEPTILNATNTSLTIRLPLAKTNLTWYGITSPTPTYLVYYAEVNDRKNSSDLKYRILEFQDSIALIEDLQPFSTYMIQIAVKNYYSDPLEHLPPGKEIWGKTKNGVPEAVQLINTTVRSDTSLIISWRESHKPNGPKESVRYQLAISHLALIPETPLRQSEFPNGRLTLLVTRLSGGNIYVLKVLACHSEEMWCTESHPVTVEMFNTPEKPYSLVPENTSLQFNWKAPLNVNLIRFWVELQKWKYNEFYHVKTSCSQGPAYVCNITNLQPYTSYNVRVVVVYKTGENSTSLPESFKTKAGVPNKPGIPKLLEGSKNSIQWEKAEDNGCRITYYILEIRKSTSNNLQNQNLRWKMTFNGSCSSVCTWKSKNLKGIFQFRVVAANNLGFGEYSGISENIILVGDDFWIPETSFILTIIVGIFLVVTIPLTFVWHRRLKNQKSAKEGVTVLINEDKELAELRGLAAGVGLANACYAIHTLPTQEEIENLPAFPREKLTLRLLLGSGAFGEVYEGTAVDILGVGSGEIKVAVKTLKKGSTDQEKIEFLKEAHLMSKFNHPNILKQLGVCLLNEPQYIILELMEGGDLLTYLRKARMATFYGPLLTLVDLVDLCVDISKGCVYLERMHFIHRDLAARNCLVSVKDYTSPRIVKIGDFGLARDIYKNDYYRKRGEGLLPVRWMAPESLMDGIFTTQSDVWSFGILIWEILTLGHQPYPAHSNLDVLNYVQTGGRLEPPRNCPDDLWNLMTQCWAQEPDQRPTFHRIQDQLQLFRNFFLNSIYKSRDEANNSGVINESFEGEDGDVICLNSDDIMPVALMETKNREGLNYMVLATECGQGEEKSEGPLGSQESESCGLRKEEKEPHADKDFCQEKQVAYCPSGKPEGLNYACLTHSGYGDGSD
# T1 sequence (Q13177 whole entry): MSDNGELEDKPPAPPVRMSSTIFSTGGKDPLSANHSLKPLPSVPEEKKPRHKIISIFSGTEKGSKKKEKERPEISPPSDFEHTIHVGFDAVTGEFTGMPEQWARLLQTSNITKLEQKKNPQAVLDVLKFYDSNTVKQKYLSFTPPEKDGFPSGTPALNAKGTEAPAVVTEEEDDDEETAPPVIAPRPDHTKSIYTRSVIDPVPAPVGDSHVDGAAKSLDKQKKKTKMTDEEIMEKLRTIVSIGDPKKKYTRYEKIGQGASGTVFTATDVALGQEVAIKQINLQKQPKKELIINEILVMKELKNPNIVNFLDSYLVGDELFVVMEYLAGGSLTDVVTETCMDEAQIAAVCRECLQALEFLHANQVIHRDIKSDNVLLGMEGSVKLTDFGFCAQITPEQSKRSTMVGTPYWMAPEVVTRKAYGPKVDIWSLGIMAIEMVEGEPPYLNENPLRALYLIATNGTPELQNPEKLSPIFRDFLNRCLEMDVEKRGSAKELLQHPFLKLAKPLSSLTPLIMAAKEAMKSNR
# T2 sequence (P00533 25-1210 G719S): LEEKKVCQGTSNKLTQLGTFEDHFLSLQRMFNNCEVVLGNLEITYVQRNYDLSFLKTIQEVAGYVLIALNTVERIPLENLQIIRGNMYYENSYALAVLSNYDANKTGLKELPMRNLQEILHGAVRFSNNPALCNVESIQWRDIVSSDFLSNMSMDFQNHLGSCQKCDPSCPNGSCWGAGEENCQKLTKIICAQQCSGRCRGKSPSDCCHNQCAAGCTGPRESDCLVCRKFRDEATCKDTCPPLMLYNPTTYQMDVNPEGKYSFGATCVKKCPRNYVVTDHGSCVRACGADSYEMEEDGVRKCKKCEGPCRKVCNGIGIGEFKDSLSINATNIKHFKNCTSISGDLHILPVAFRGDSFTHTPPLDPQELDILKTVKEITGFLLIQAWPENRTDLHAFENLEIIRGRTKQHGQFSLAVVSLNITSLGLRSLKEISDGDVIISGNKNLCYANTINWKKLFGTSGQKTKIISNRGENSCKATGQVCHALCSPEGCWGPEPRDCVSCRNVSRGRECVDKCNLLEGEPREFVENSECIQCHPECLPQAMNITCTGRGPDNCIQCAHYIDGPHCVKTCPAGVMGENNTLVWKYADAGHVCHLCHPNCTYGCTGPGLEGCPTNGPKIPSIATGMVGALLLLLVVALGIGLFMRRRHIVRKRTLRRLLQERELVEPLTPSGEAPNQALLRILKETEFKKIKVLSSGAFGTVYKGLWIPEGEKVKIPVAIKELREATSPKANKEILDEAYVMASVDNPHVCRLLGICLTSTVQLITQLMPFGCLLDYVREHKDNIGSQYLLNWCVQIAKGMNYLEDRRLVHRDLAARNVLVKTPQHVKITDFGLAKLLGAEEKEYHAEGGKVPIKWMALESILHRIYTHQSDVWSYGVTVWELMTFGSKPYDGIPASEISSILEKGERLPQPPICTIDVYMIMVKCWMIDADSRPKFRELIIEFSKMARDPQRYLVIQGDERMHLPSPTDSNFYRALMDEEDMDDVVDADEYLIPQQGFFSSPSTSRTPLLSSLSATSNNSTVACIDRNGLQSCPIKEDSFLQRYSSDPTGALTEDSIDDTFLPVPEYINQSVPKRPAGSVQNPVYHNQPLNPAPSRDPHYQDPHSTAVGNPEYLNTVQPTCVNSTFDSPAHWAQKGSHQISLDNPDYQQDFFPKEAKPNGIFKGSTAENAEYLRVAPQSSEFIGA
smiles,measurement,setting,value
Cc1cccc(-c2cnc3occ(-c4ccc(C(=O)O)c(C5CCCC5)c4)c3c2)c1 [SGC-CAMKK2-1 (YL-36)],remaining binding at 1 µM,[1],55%
same,remaining binding at 1 µM,[2],77%
same,remaining binding at 1 µM,[3],82%
same,remaining binding at 1 µM,[4],85%
same,remaining binding at 1 µM,[5],95%
same,remaining binding at 1 µM,[6],99%
same,remaining binding at 1 µM,[7],100%
same,remaining binding at 1 µM,[8],100%
same,remaining binding at 1 µM,[9],100%
same,remaining binding at 1 µM,[10],100%
same,remaining binding at 1 µM,[11],100%
same,remaining binding at 1 µM,[12],100%
same,remaining binding at 1 µM,[13],100%
same,remaining binding at 1 µM,[14],100%
same,remaining binding at 1 µM,[15],100%
same,remaining binding at 1 µM,[16],100%
same,remaining binding at 1 µM,[17],100%
O=C(O)c1ccc(-c2coc3ncc(-c4ccccc4)cc23)cc1Cl [SGC-CAMKK2-1N (UNC-YL-83)],remaining binding at 1 µM,[18],62%
same,remaining binding at 1 µM,[19],65%
same,remaining binding at 1 µM,[20],68%
same,remaining binding at 1 µM,[21],72%
same,remaining binding at 1 µM,[22],76%
same,remaining binding at 1 µM,[23],82%
same,remaining binding at 1 µM,[24],85%
same,remaining binding at 1 µM,[25],91%
same,remaining binding at 1 µM,[26],91%
same,remaining binding at 1 µM,[27],100%
same,remaining binding at 1 µM,[28],100%
same,remaining binding at 1 µM,[29],100%
same,remaining binding at 1 µM,[30],100%
same,remaining binding at 1 µM,[31],100%
same,remaining binding at 1 µM,[32],100%
same,remaining binding at 1 µM,[33],100%
